Assay results as given in US7335665B2, “Spirocyclic piperidines as MCH1 antagonists and uses thereof” (H - Lundbeck A/S, priority 2003, dated 2008).
Where two headings read alike, the source gives them in different places.

Biological target: T1, rat MCH1 receptor (Rattus norvegicus, UniProt P97639)
T1 construct: expressed in transfected cells; host or cells: Human embryonic kidney Peak rapid 293 cells (Peakr293), transient, calcium phosphate; membranes
Experiment: Radioligand binding assay at cloned rat MCH1 receptor ([3H]Compound A displacement)
Conditions: cloned rat MCH1, membranes of transfected Peakr293 cells, 0.08 nM [3H]Compound A, 25° C., 90 minutes
Experimental: For binding assays, pellets of transfected cells are suspended in ice-cold buffer (20 mM Tris.HCl, 5 mM EDTA, pH 7.4) and homogenized by sonication for 7 sec. The cell lysates are centrifuged at 200×g for 5 min at 4° C. The supernatants are then centrifuged at 40,000×g for 20 min at 4° C. The resulting pellets are washed once in the homogenization buffer and suspended in binding buffer (see methods for radioligand binding). Protein concentrations are determined by the method of Bradford (1976) using bovine serum albumin as the standard. Binding assays are usually performed immediately, however it is possible to prepare membranes in batch and store frozen in liquid nitrogen for future use.
Radioligand binding assays for the rat MCH1 receptor were carried out using plasmid pcDNA3.1-rMCH1-f (ATCC Patent Deposit Designation No. PTA-3505). Plasmid pcDNA3.1-rMCH1-f comprises the regulatory elements necessary for expression of DNA in a mammalian cell operatively linked to DNA encoding the rat MCH1 receptor so as to permit expression thereof. Plasmid pcDNA3.1-rMCH1-f was deposited on Jul. 5, 2001, with the American Type Culture Collection (ATCC), 12301 Parklawn Drive, Rockville, Md. 20852, U.S.A. under the provisions of the Budapest Treaty for the International Recognition of the Deposit of Microorganisms for the Purposes of Patent Procedure and was accorded ATCC Patent Deposit Designation No. PTA-3505.
Human embryonic kidney Peak rapid 293 cells (Peakr293 cells) were transiently transfected with DNA encoding the MCH1 receptor utilizing the calcium phosphate method and cell membranes were prepared as described above. Binding experiments with membranes from Peakr293 cells transfected with the rat MCH1 receptor were performed with 0.08 nM [^3H]Compound A (custom labeled by Amersham) (the synthesis of Compound A is described in detail below) using an incubation buffer consisting of 50 mM Tris pH 7.4, 10 mM MgCl2, 0.16 mM PMSF, 1 mM 1,10 phenantroline and 0.2% BSA. Binding was performed at 25° C. for 90 minutes. Incubations were terminated by rapid vacuum filtration over GF/C glass fiber filters, presoaked in 5% PEI using […] Tris pH 7.4 as wash buffer. In all experiments, nonspecific binding is defined using […] Compound A.
The compounds described above were assayed using cloned rat MCH1.

T1 sequence (P97639 whole entry): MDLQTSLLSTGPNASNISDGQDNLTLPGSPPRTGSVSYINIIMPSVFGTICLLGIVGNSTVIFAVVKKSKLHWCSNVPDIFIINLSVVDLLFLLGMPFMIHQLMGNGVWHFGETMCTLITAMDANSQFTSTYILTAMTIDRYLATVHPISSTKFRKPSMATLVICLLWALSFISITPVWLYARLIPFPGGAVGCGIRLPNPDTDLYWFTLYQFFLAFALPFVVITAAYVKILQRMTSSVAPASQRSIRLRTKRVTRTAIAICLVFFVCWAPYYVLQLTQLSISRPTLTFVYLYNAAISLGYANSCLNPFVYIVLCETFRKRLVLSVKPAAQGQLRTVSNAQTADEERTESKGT

O=C(NCCCN1CCC2(C=Cc3ccccc32)CC1)C1(c2ccc(F)cc2)CCCCC1 [Example 72, [(4-FLUOROPHENYL)CYCLOHEXYL]-N-(3-(SPIRO[INDENE-1,4′-PIPERIDINE]-10-YL)PROPYL)CARBOXAMIDE]
Ki (read-out: KI): 131 nM

O=C(NCCCN1CCC2(C=Cc3ccccc32)CC1)C1(c2ccc(Cl)cc2)CC1 [Example 73, [(4-CHLOROPHENYL)CYCLOPROPYL]-N-(3-(SPIRO[INDENE-1,4′-PIPERIDINE]-10-YL)PROPYL)CARBOXAMIDE]
Ki (read-out: KI): 239 nM

O=C(NCCCN1CCC2(C=Cc3ccccc32)CC1)C1(c2ccc(Cl)cc2)CCC1 [Example 74, [(4-CHLOROPHENYL)CYCLOBUTYL]-N-(3-(SPIRO[INDENE-1,4′-PIPERIDINE]-10-YL)PROPYL)CARBOXAMIDE]
Ki (read-out: KI): 185 nM

Cc1ccc(C2(C(=O)NCCCN3CCC4(CC3)OCc3ccccc34)CCCC2)cc1 [Example 75, [(4-METHYL)PHENYL)CYCLOPENTYL]-N-(3-(SPIRO[1,3-DIHYDROISOBENZOFURAN-1,4′-PIPERIDINE]-10-YL)PROPYL)CARBOXAMIDE]
Ki (read-out: KI): 700 nM

O=C(NCCCN1CCC2(CC1)OCc1ccccc12)C(c1ccccc1)c1ccccc1 [Example 76, 2,2-DIPHENYL-N-(3-(SPIRO[1,3-DIHYDROISOBENZOFURAN-1,4′-PIPERIDINE]-10-YL)PROPYL)ACETAMIDE]
Ki (KI): 20.6 nM

O=C(NCCCN1CCC2(CC1)OCc1ccccc12)C(c1ccccc1)(c1ccccc1)c1ccccc1 [Example 77, 2,2,2-TRIPHENYL-N-(3-(SPIRO[1,3-DIHYDROISOBENZOFURAN-1,4′-PIPERIDINE]-10-YL)PROPYL)ACETAMIDE]
Ki (KI): 151 nM

Cc1ccc(C(C(=O)NCCCN2CCC3(CC2)OCc2ccccc23)c2ccc(C)cc2)cc1 [Example 78, 2,2-BIS(4-METHYL)PHENYL)-N-(3-(SPIRO[1,3-DIHYDROISOBENZOFURAN-1,4′-PIPERIDINE]-10-YL)PROPYL)ACETAMIDE]
Ki (read-out: KI): 19.7 nM

O=C(NCCCN1CCC2(CC1)OCc1ccccc12)C1(c2ccc(F)cc2)CCCC1 [Example 79, [(4-FLUOROPHENYL)CYCLOPENTYL]-N-(3-(SPIRO[1,3-DIHYDROISOBENZOFURAN-1,4′-PIPERIDINE]-10-YL)PROPYL)CARBOXAMIDE]
Ki (KI): 514 nM

O=C(NCCCN1CCC2(CC1)OCc1ccccc12)C1(c2ccc(F)cc2)CCCCC1 [Example 80, [(4-FLUOROPHENYL)CYCLOHEXYL]-N-(3-(SPIRO[1,3-DIHYDROISOBENZOFURAN-1,4′-PIPERIDINE]-10-YL)PROPYL)CARBOXAMIDE]
Ki (KI): 174 nM

CC(C)(C(=O)NCCCN1CCC2(CC1)OCc1ccccc12)c1ccc(Cl)cc1 [Example 81, 2-(4-CHLOROPHENYL)-2-METHYL-N-(3-(SPIRO[1,3-DIHYDROISOBENZOFURAN-1,4′-PIPERIDINE]-10-YL)PROPYL)PROPANAMIDE]
Ki (read-out: KI): 185 nM

CC(C(=O)NCCCN1CCC2(CC1)OCc1ccccc12)c1ccc(F)cc1 (stereo not drawn) [Example 82, 2-(4-FLUOROPHENYL)-N-(3-(SPIRO[1,3-DIHYDROISOBENZOFURAN-1,4′-PIPERIDINE]-10-YL) PROPYL) PROPANAMIDE]
Ki (KI): 679 nM

CC(C(=O)NCCCN1CCC2(CC1)OCc1ccccc12)c1ccc(Cl)cc1 (stereo not drawn) [Example 83, 2-(4-CHLOROPHENYL)-N-(3-(SPIRO[1,3-DIHYDROISOBENZOFURAN-1,4′-PIPERIDINE]-10-YL)PROPYL)PROPANAMIDE]
Ki (read-out: KI): 557 nM

O=C(NCCCN1CCC2(CC1)OCc1ccccc12)C(c1ccc(F)cc1)c1ccc(F)cc1 [Example 84, 2,2-BIS(4-FLUOROPHENYL)-N-(3-(SPIRO[1,3-DIHYDROISOBENZOFURAN-1,4′-PIPERIDINE]-10-YL)PROPYL)ACETAMIDE]
Ki (KI): 4.9 nM

O=C(NCCCN1CCC2(CC1)OCc1ccccc12)C1(c2ccc(Cl)cc2)CCCC1 [Example 85, [(4-CHLOROPHENYL)CYCLOPENTYL]-N-(3-(SPIRO[1,3-DIHYDROISOBENZOFURAN-1,4′-PIPERIDINE]-10-YL)PROPYL)CARBOXAMIDE]
Ki (read-out: KI): 183 nM

O=C(Cc1ccc(F)c(F)c1)NCCCN1CCC2(CC1)OCc1ccccc12 [Example 86, 2-(3,4-DIFLUOROPHENYL)-N-(3-(SPIRO[1,3-DIHYDROISOBENZOFURAN-1,4′-PIPERIDINE]-10-YL)PROPYL)ACETAMIDE]
Ki (KI): 379 nM

O=C(NCCCN1CCC2(CC1)OCc1ccccc12)C1(c2ccc(Cl)cc2)CCC1 [Example 87, [(4-CHLOROPHENYL)CYCLOBUTYL]-N-(3-(SPIRO[1,3-DIHYDROISOBENZOFURAN-1,4′-PIPERIDINE]-10-YL)PROPYL)CARBOXAMIDE]
Ki (KI): 417 nM

CC(C(=O)NCCCN1CCC2(CC1)OCc1ccccc12)(c1ccccc1)c1ccccc1 [Example 88, 2,2-DIPHENYL-N-(3-(SPIRO[1,3-DIHYDROISOBENZOFURAN-1,4′-PIPERIDINE]-10-YL)PROPYL)PROPANAMIDE]
Ki (KI): 144 nM

O=C(NCCCN1CCC2(CC1)OCc1ccccc12)C1(c2ccc(Cl)cc2)CC1 [Example 89, [(4-CHLOROPHENYL)CYCLOPROPYL]-N-(3-(SPIRO[1,3-DIHYDROISOBENZOFURAN-1,4′-PIPERIDINE]-10-YL)PROPYL)CARBOXAMIDE]
Ki (read-out: KI): 481 nM

O=C(NCCCN1CCC2(CC1)OCc1ccccc12)C(c1ccc(Cl)cc1)c1ccc(Cl)cc1 [Example 90, 2,2-BIS(4-CHLOROPHENYL)-N-(3-(SPIRO[1,3-DIHYDROISOBENZOFURAN-1,4′-PIPERIDINE]-10-YL)PROPYL)ACETAMIDE]
Ki (read-out: KI): 5.4 nM

O=C(NCCCN1CCC2(CC1)Cc1ccccc1C2=O)C(c1ccc(Cl)cc1)c1ccc(Cl)cc1 [Example 91, 2,2-BIS(4-CHLOROPHENYL)-N-[3-(1-OXOSPIRO[INDANE-2,4′-PIPERIDINE]-10-YL)PROPYL]ACETAMIDE]
Ki (read-out: KI): 381 nM

O=C(NCCCN1CCC2(CC1)Cc1ccccc1C2=O)C(c1ccc(F)cc1)c1ccc(F)cc1 [Example 92, 2,2-BIS(4-FLUOROPHENYL)-N-[3-(1-OXOSPIRO[INDANE-2,4′-PIPERIDINE]-10-YL)PROPYL]ACETAMIDE]
Ki (read-out: KI): 61.6 nM

O=C1OC2(CCN(CCCNC(=O)C(c3ccccc3)c3ccccc3)CC2)c2ccccc21 [Example 93, N-[3-(1-OXOSPIRO[3-HYDROISOBENZOFURAN-3,4′-PIPERIDINE]-10-YL)PROPYL]-2,2-DIPHENYLACETAMIDE]
Ki (read-out: KI): 783 nM

O=C1OC2(CCN(CCCNC(=O)C(c3ccc(Cl)cc3)c3ccc(Cl)cc3)CC2)c2ccccc21 [Example 94, 2,2-BIS(4-CHLOROPHENYL)-N-[3-(1-OXOSPIRO[3-HYDROISOBENZOFURAN-3,4′-PIPERIDINE]-10-YL)PROPYL]ACETAMIDE]
Ki (KI): 600 nM

O=C1OC2(CCN(CCCNC(=O)C(c3ccc(F)cc3)c3ccc(F)cc3)CC2)c2ccccc21 [Example 95, 2,2-BIS(4-FLUOROPHENYL)-N-[3-(1-OXOSPIRO[3-HYDROISOBENZOFURAN-3,4′-PIPERIDINE]-10-YL)PROPYL]ACETAMIDE]
Ki (read-out: KI): 84.6 nM

O=C(NCCCN1CCC2(CCCc3ccccc32)CC1)C(c1ccccc1)c1ccccc1 [Example 96, 2,2-DIPHENYL-N-(3-(SPIRO[1,2,3,4-TETRAHYDRONAPHTHALENE-1,4′-PIPERIDINE]-11-YL) PROPYL)ACETAMIDE]
Ki (read-out: KI): 128 nM

Cc1ccc(C(C(=O)NCCCN2CCC3(CC2)C(=O)CCc2ccccc23)c2ccc(C)cc2)cc1 [Example 97, 2,2-BIS(4-METHYL)PHENYL)-N-[3-(2-OXOSPIRO[1,3,4-TRIHYDRONAPHTHALENE-1,4′-PIPERIDINE]-11-YL)PROPYL]ACETAMIDE]
Ki (KI): 428 nM

O=C(NCCCN1CCC2(CC1)C(=O)CCc1ccccc12)C(c1ccccc1)c1ccccc1 [Example 98, N-[3-(2-OXOSPIRO[1,3,4-TRIHYDRONAPHTHALENE-1,4′-PIPERIDINE]-11-YL)PROPYL]-2,2-DIPHENYLACETAMIDE]
Ki (read-out: KI): 682 nM

O=C(NCCCN1CCC2(CC1)OCc1cc(F)c(F)c(F)c12)C(c1ccccc1)c1ccccc1 [Example 99, 2,2-DIPHENYL-N-[3-(4,5,6-TRIFLUOROSPIRO[1,3-DIHYDROISOBENZOFURAN-3,4′-PIPERIDINE]-10-YL)PROPYL]ACETAMIDE]
Ki (KI): 11.6 nM

O=C(NCCCN1CCC2(CC1)OCc1ccc(Cl)cc12)C(c1ccccc1)c1ccccc1 [Example 100, N-[3-(5-CHLOROSPIRO[1,3-DIHYDROISOBENZOFURAN-3,4′-PIPERIDINE]-10-YL)PROPYL]-2,2-DIPHENYLACETAMIDE]
Ki (read-out: KI): 2.6 nM

O=C(NCCCN1CCC2(CC1)OCc1ccc(F)cc12)C(c1ccccc1)c1ccccc1 [Example 101, N-[3-(5-FLUOROSPIRO[1,3-DIHYDROISOBENZOFURAN-3,4′-PIPERIDINE]-10-YL)PROPYL]-2,2-DIPHENYLACETAMIDE]
Ki (read-out: KI): 5.8 nM
